“And” between values parts separate entries of the source, which are not always exact repeats. Equal values may be shown once. Read-outs that look alike come from different tables or passages of the source.
Key:
[1] = target: liver fatty acid binding protein (L-FABP); set-up: method as in Yang et al. 2020; conditions: ref Yang et al. 2020; read-out: Kd (μM), L-FABP binding affinity; cited from earlier work
[2] = system: zebrafish larvae; assay: Bioconcentration factors (BCF) of PFAS in zebrafish larvae; conditions: zebrafish larvae, 120 hpf, three replicates; for BCF 0.5µM: 0.5 µM exposure; for BCF 5µM: 5 µM exposure
Protocol: Zebrafish embryos were collected immediately after spawning, within 1 h, and subsequently transferred to 24-well plates with 1mL of facility water ( 0.036g sea salt, 0.15g sodium bicarbonate in 2L of reverse osmosis water). […] Three well replicates on the same plate were conducted for each concentration of individual chemical. […] Seven batches of experiments were performed to test all 74 PFAS. DMSO controls were incorporated in each batch of exposure experiments. Three replicates were performed for each treatment group, and 20 embryos were used for each replicate. […] For daily replenishment, 2.5mL of old exposure medium were replaced with freshly prepared medium every 24 h from 24 to 96 h post fertilization (hpf). Hatched or dead embryo numbers were recorded every 24 hpf, after which dead embryos were discarded from the growth media. Dead embryos or unhatched embryos were not used for PFAS measurement because the metabolism of PFAS might have been impacted. Zebrafish larvae collection occurred at 120 hpf. First, the larvae were anesthetized by cooling the plate in ice water (0–4°C) for ∼20 min . Then 8–15 larvae in each well were transferred into 1.5-mL tubes. Exposure media was carefully removed, and then the larvae were weighed (wet weight) after blotting excess water with a paper towel. […] Samples were stored at −80 °C until further chemical analysis was performed. Survival rate and hatching rate were calculated by summarizing all the documented data from the whole treatment duration. […] The exposure experiment of PFOSA was repeated using the same procedure as described above.
Each sample was spiked with 2μL of 0.2μg/mL mass-labeled PFAS mixture. Following this, 500μL of dichloromethane/methanol (2:1, vol/vol) was added to each sample for PFAS extraction. Larvae were then homogenized via ultrasonic probe, followed by 30 min of shaking and 30 min of sonication. Each sample was centrifuged at 14,000×g for 5 min, after which the supernatant was transferred to new tubes. Extraction was repeated once and the two supernatants were combined, evaporated under nitrogen flow, and reconstituted in 200μL of methanol for MS analysis.
Three microliters of each zebrafish extract was applied to a C18 column ( 1.5μm; 2.1mm×50mm; Thermo Scientific) and analyzed using a Vanquish ultra-HPLC system (Thermo Fisher Scientific) coupled to a Q Exactive high-resolution mass spectrometer (Thermo Fisher Scientific). The sampler and column compartments were maintained at 4°C and 40°C, respectively. The aqueous mobile phase solution (A) consisted of water, whereas the organic mobile phase solution (B) consisted of acetonitrile. […] MS data was acquired in full scan mode (100–1000 m/z, 70,000 mass resolution, 3×10^6 maximum ions collected per 100 ms), and tandem MS (MS/MS) data was recorded by all-ion fragmentation (AIF) mode. Negative and positive ion modes were carried out simultaneously at a 10-min method duration. […] An overview of the analyses conducted on the various PFAS is available in Table S2.
GraphPad Prism (version 7.0.4; GraphPad Software) and R studio (version 1.1.456; R Studio Inc.) software was used, and an ANOVA with Dunnett tests was employed to evaluate the statistical significance of the percentage hatched and mortality rate. Exponential regressions were used to determine the relationships between bioconcentration factor (BCF) and binding affinities ( Kd ) to L-FABP.

[3] = system: zebrafish embryos
[4] = 5μM through 120 hpf, malformation rate
[5] = zebrafish (Danio rerio), in vivo

Structure (SMILES) | Kd [1] [µM] | BCF 0.5µM [2] | BCF 5µM [2] [L/kg] | pericardial oedemata, Mean [3, 4] [%] | spinal curvature, Mean [3, 4] [%] | tail dysplasia, Mean [3, 4] [%] | Mortality (%) ([3]; 5 µM, exposure through 120 hpf) | Mortality (%) [3, 5] | pericardial oedemata, Mean [3, 5] [%] | spinal curvature, Mean [3, 5] [%] | tail dysplasia, Mean [3, 5] [%]
O=S(=O)([O-])C(F)(F)C(F)(F)C(F)(F)C(F)(F)C(F)(F)C(F)(F)F.[K+] [compound 26, Potassium perfluorohexanesulfonate] | 11.2 | 55.2382 L/kg | 30 ± 0.71 | 0.00 | 0.00 | 0.00 | 3.3 |  |  |  | 
O=C(O)C(F)(F)C(F)(F)C(F)(F)OC(F)(F)F [compound 28, Perfluoro(4-methoxybutanoic) acid] | 815 | 5.238 L/kg | 1.4 ± 0.17 | 0.00 | 2.22 | 0.00 | 1.1 |  |  |  | 
O=C(O)C(F)(F)OC(F)(F)C(F)(F)OC(F)(F)C(F)(F)OC(F)(F)C(F)(F)C(F)(F)C(F)(F)F [compound 34, Perfluoro-3,6,9-trioxatridecanoic acid] | 8.22 | 585 ± 174 L/kg and 584.908 L/kg | 93 ± 19 | 0.00 | 0.00 | 0.00 | 10 |  |  |  | 
O=S(=O)(O)C(F)(F)C(F)(F)C(F)(F)C(F)(F)C(F)(F)C(F)(F)C(F)(F)C(F)(F)F [compound 46, Perfluorooctanesulfonic acid] | 8.1 | 270.546 L/kg | 91 ± 10 | 0.00 | 0.00 | 0.00 | 2.2 |  |  |  | 
O=C(O)C(F)(F)OC(F)(F)C(F)(F)OC(F)(F)F [compound 54, Perfluoro-3,6-dioxaheptanoic acid] | 252 | 2.103 L/kg | 2.0 ± 0.40 | 1.11 | 0.00 | 1.11 | 2.2 |  |  |  | 
O=S(=O)([O-])C(F)(F)C(F)(F)C(F)(F)C(F)(F)F.[K+] [compound 57, Potassium perfluorobutanesulfonate] | 125 | 4.038 L/kg | 3.0 ± 0.54 | 1.11 | 0.00 | 0.00 | 2.2 |  |  |  | 
O=C(/C=C(\O)C(F)(F)F)C(F)(F)F [compound 61, 3H-Perfluoro-4-hydroxy-3-penten-2-one] | 135 |  | 7.7 ± 2.3 |  |  |  |  | 4.4 | 0.00 | 0.00 | 0.00
O=S(=O)(O)C(F)(F)C(F)(F)C(F)(F)C(F)(F)F [compound 73, Perfluorobutanesulfonic acid] | 116 | 2.903 L/kg | 2.8 ± 0.47 | 0.00 | 1.11 | 0.00 | 5.6 |  |  |  | 
